The values below come from patent publication US9018206B2, “Carboxamide compounds and their use as calpain inhibitors” (AbbVie Deutschland GmbH & Co. KG, priority 2009, dated 2015).

SMILES strings stand for the structures. pKi: −log10 of the molar value.

The nature of data set [1]: Assay for determining cytosolic clearance, human liver cytosol. The format is in vitro ADME. Conditions: 0.5 μM compound, 1 mg/ml human liver cytosol, 37° C., pH 7.5. As for the experimental part: (§1) For comparison purposes data measured with human liver cytosol were contrasted with those obtained with cynomolgus monkey liver cytosol.
(§2) 0.5 μM of a compound to be tested was incubated with 1 mg/ml of human liver cytosol as well as monkey liver cytosol at 37° C. in 0.5 M of phosphate buffer at pH 7.5 while shaking (commercial sources: female cynomolgus liver cytosol from Tebu bio, human liver cytosol from BDgentest).
(§3) In each case aliquots of 65 μl were taken after 0, 5, 10 and 15 min and transferred into wells of a wellplate which were immediately filled with 130 μl of ethanol to stop the reaction. The samples were kept frozen until analysis on a LC/MS/MS system (Applied Biosystems SCIEX 4000).
(§4) Read out parameters were the loss of parent compounds, from which the half life periods (T1/2) were calculated from.
(§5) To assess the stability of the compounds tested the clearance ranges were adjusted to the hepatic plasma flow of the different species according to the following scheme:
(§6) stable=from 0 to about ⅓ of the hepatic plasma flow;
(§7) moderately stable=from about ⅓ to about ⅔ of the hepatic plasma flow;
(§8) instable=more than ⅔ of the hepatic plasma flow.
(§9) Based on this adjustment the following qualifiers were assigned to evaluate the cytosolic stabilities of the compounds tested: […]

Data set [2] has as its target T1, cathepsin K activated from recombinant human procathepsin K (Homo sapiens, UniProt P43235).
T1 construct: purchased Calbiochem 342001; host or cells: E. coli
T1 sequence (P43235 115-329): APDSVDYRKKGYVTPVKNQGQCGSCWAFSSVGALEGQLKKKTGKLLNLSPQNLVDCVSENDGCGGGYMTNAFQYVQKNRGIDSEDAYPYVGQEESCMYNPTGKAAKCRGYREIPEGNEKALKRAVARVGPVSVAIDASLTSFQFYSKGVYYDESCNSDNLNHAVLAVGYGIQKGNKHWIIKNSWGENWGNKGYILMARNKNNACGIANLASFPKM
The data set can be described thus: Cathepsin K enzyme inhibition in vitro (kinetic fluorescence assay). The format is biochemical. Conditions: Ki(cathepsin K)/Ki(calpain) ratio. The method in brief: (§10)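 Kinetic AMC fluorescence (ex 390/em 460 nm), room temperature. Calpain-I 20 nM, 100 μM Suc-Leu-Tyr-AMC, imidazole/CaCl2 pH 7.3; cathepsins B 0.25 nM/100 μM Z-Phe-Arg-AMC, K 3 nM/10 μM Z-Gly-Pro-Arg-AMC, S 0.5 nM/20 μM Z-Val-Val-Arg-AMC, each MES/EDTA/cysteine pH 6.0. Ki from IC50 via Cheng-Prusoff, averaging 2–4 curves.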

Data set [3] concerns the target T2, recombinant human cathepsin S (Homo sapiens, UniProt P25774).
T2 construct: purchased Calbiochem 219343; host or cells: E. coli
The data set can be described thus: Cathepsin S enzyme inhibition in vitro (kinetic fluorescence assay). The format is biochemical. Conditions: Ki(cathepsin S)/Ki(calpain) ratio. A digest of the protocol:
as §10

Data set [4] addresses T3, cathepsin B isolated from human liver (Homo sapiens, UniProt P07858).
T3 construct: cathepsin B—isolated from human liver; purchased Calbiochem 219362; host or cells: human liver (tissue-derived)
The data set can be described thus: Cathepsin B enzyme inhibition in vitro (kinetic fluorescence assay). The format is biochemical. Conditions: Ki(cathepsin B)/Ki(calpain) ratio. The method in brief:
as §10

Data set [5] can be described thus: Assay for determining cytosolic clearance, cynomolgus monkey liver cytosol. The conditions noted are these: 0.5 μM compound, 1 mg/ml cynomolgus monkey liver cytosol, 37° C., pH 7.5. The format is in vitro ADME. As for the experimental part: as §1, §2, §3, §4, §5, §6, §7, §8, §9
Data set [6] deals with T4, calpain-I isolated from human erythrocytes (Homo sapiens, UniProt P07384).
T4 construct: calpain-I—isolated from human erythrocytes; purchased Calbiochem 208713; host or cells: human erythrocytes (tissue-derived)
T4 sequence (P07384 1-714): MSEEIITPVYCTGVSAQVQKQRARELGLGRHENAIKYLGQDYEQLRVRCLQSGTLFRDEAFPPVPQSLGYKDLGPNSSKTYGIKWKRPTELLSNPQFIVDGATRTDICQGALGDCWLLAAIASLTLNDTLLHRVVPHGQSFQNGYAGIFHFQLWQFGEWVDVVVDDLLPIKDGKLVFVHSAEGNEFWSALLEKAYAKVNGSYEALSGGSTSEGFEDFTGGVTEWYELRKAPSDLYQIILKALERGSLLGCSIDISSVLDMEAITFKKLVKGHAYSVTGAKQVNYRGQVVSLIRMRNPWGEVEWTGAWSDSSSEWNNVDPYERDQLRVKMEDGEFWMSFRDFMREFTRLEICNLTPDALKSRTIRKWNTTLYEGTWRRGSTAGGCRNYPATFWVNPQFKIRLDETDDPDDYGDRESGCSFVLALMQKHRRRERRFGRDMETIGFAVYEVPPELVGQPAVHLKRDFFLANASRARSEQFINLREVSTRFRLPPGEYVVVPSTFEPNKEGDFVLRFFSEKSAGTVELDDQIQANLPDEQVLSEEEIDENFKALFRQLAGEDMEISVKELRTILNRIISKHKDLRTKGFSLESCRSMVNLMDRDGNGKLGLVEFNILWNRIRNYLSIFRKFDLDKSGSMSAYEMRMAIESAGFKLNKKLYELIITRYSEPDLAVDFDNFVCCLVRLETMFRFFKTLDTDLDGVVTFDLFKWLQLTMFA
T4 sequence (P04632 1-268 partner): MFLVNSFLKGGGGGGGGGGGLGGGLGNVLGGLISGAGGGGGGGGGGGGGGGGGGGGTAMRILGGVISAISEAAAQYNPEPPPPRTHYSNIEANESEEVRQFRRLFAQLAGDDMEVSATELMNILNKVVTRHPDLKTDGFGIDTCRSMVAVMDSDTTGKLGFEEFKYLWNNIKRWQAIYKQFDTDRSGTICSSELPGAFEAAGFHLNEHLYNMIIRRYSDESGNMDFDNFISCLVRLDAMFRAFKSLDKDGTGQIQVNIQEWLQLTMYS
The data set can be described thus: Calpain I enzyme inhibition in vitro (kinetic fluorescence assay). Type of data set: biochemical. The conditions noted are these: apparent Ki from IC50 (Cheng-Prussoff); 20 nM calpain-I, 100 μM Suc-Leu-Tyr-AMC, pH 7.3, room temperature. The method in brief: as §10

Data set [7] concerns the target T5, cathepsin L isolated from human liver (Homo sapiens, UniProt P07711).
T5 construct: cathepsin L—isolated from human liver; purchased Calbiochem 219402; host or cells: human liver (tissue-derived)
The data set can be described thus: Cathepsin L enzyme inhibition in vitro (kinetic fluorescence assay). The format is biochemical. The conditions noted are these: Ki(cathepsin L)/Ki(calpain) ratio. The method in brief:
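Inhibition of cathepsin L isolated from human liver was measured by kinetic fluorescence (excitation 390 nm, emission 460 nm) using 1 nM enzyme and 2 μM Z-Phe-Arg-AMC substrate (Km 2 μM) in 50 mM MES, 2 mM EDTA, 0.05% Brij 35, 2.5 mM L-cysteine, pH 6.0, at room temperature. Apparent Ki values came from IC50 values via the Cheng-Prussoff relation, averaged over 2 to 4 dose-effect plots.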

T5 sequence (P07711 114-333): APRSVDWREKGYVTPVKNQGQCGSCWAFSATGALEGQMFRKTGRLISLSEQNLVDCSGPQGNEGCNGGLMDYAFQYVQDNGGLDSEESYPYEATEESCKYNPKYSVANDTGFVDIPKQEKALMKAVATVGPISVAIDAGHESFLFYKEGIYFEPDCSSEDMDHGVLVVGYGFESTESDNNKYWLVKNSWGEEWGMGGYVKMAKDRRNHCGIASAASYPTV
T2 sequence (P25774 115-331): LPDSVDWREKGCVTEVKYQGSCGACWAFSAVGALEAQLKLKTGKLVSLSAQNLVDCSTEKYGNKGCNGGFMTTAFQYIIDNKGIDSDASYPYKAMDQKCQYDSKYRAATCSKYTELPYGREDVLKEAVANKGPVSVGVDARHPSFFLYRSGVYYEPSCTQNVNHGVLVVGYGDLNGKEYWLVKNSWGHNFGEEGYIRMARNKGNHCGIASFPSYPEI

As to `O=C(NC1CC1)C(=O)C(Cc1ccccc1)NC(=O)[C@H]1CCC(=O)N1Cc1ccccc1C(F)(F)F` (mixture of isomers) [Example 36, (2R)—N-(4-(Cyclopropylamino)-3,4-dioxo-1-phenylbutan-2-yl)-5-oxo-1-(2-(trifluoromethyl)benzyl)pyrrolidine-2-carboxamide], the “human cytCL” value in data set [1] is recorded as “++ (0-14 μl/min/mg)”. Besides, the “Sel cat. K” value in data set [2] is “+++ (Ki(cathepsin K)/Ki(calpain) ratio of >30)”. Besides, the “Sel cat. S” value in data set [3] is reported as “+++ (Ki(cathepsin S)/Ki(calpain) ratio of >100)”. Also, the “Sel cat. B” value in data set [4] was “++ (10<Ki(cathepsin B)/Ki(calpain)≦30)”. Moreover, the “cyno cytCL” value in data set [5] is given as “++ (0-18 μl/min/mg)”. Also, the pKi in data set [6] is 7.00 to 7.30. In data set [7], the “Sel cat. L” value is recorded as “+++ (Ki(cathepsin L)/Ki(calpain) ratio of >30)”.
In the case of `CCNC(=O)C(=O)C(Cc1ccccc1)NC(=O)[C@H]1CCC(=O)N1Cc1ccccc1C(F)(F)F` (mixture of isomers) [Example 37, (2R)—N-(4-(Ethylamino)-3,4-dioxo-1-phenylbutan-2-yl)-5-oxo-1-(2-(trifluoromethyl)-benzyl)pyrrolidine-2-carboxamide], in data set [1], the “human cytCL” value is recorded as “++ (0-14 μl/min/mg)”. The “Sel cat. K” value in data set [2] is listed as “++ (10<Ki(cathepsin B)/Ki(calpain)≦30)”. The “Sel cat. S” value in data set [3] is listed as “+ (10<Ki(cathepsin S)/Ki(calpain)≦30)”. Further, the “Sel cat. B” value in data set [4] is reported as “++ (10<Ki(cathepsin B)/Ki(calpain)≦30)”. The “cyno cytCL” value in data set [5] is “++ (0-18 μl/min/mg)”. Besides, the pKi in data set [6] was 6.22 to 7.00. Also, the “Sel cat. L” value in data set [7] is listed as “+++ (Ki(cathepsin L)/Ki(calpain) ratio of >30)”.
Take `COc1cccc(C(F)(F)F)c1CN1C(=O)CC[C@@H]1C(=O)NC(Cc1ccccc1)C(=O)C(=O)NCc1ccccn1` (mixture of isomers) [Example 43, (2R)—N-(3,4-Dioxo-1-phenyl-4-(pyridin-2-ylmethylamino)butan-2-yl)-1-(2-methoxy-6-(trifluoromethyl)benzyl)-5-oxopyrrolidine-2-carboxamide]: the “human cytCL” value in data set [1] is on record as “++ (0-14 μl/min/mg)”. In data set [2], the “Sel cat. K” value is “+++ (Ki(cathepsin K)/Ki(calpain) ratio of >30)”. In addition, the “Sel cat. S” value in data set [3] is “++ (30<Ki(cathepsin B)/Ki(calpain)≦100)”. The “Sel cat. B” value in data set [4] is recorded as “+++ (Ki(cathepsin B)/Ki(calpain) ratio of >30)”. In addition, in data set [5], the “cyno cytCL” value is “++ (0-18 μl/min/mg)”. In data set [6], the pKi is 6.22 to 7.00. For the same molecule, the “Sel cat. L” value in data set [7] was “+++ (Ki(cathepsin L)/Ki(calpain) ratio of >30)”.
With `O=C(NCc1ccccn1)C(=O)C(Cc1ccccc1)NC(=O)[C@H]1CCC(=O)N1Cc1ccccc1` (stereo partly drawn) [Example 20, (2R)-1-Benzyl-N-{3,4-dioxo-1-phenyl-4-[(pyridin-2-ylmethyl)amino]butan-2-yl}-5-oxopyrrolidine-2-carboxamide], in data set [1], the “human cytCL” value is reported as “++ (0-14 μl/min/mg)”. Besides, the “Sel cat. K” value in data set [2] is given as “+++ (Ki(cathepsin K)/Ki(calpain) ratio of >30)”. For the same molecule, in data set [3], the “Sel cat. S” value was “+++ (Ki(cathepsin S)/Ki(calpain) ratio of >100)”. Also, in data set [4], the “Sel cat. B” value is listed as “+++ (Ki(cathepsin B)/Ki(calpain) ratio of >30)”. In addition, the “cyno cytCL” value in data set [5] is “++ (0-18 μl/min/mg)”. Besides, the pKi in data set [6] is 7.00 to 7.30. Besides, the “Sel cat. L” value in data set [7] is given as “++ (10<Ki(cathepsin B)/Ki(calpain)≦30)”.
For the molecule `CCNC(=O)C(=O)C(Cc1ccccc1)NC(=O)[C@H]1CCC(=O)N1Cc1ccccc1` (stereo partly drawn) [Example 21, (2R)-1-Benzyl-N-[4-(ethylamino)-3,4-dioxo-1-phenylbutan-2-yl]-5-oxopyrrolidine-2-carboxamide], in data set [1], the “human cytCL” value was “++ (0-14 μl/min/mg)”. Also, the “Sel cat. K” value in data set [2] was “+++ (Ki(cathepsin K)/Ki(calpain) ratio of >30)”. The “Sel cat. S” value in data set [3] is “++ (30<Ki(cathepsin B)/Ki(calpain)≦100)”. Also, the “Sel cat. B” value in data set [4] is on record as “+++ (Ki(cathepsin B)/Ki(calpain) ratio of >30)”. Besides, the “cyno cytCL” value in data set [5] was “++ (0-18 μl/min/mg)”. Moreover, the pKi in data set [6] was 6.22 to 7.00. Also, in data set [7], the “Sel cat. L” value is given as “+++ (Ki(cathepsin L)/Ki(calpain) ratio of >30)”.
In the case of `COc1cccc(C(F)(F)F)c1CN1C(=O)CC[C@@H]1C(=O)NC(Cc1ccccc1)C(=O)C(N)=O` (stereo partly drawn) [Example 50, (2R)—N-(4-Amino-3,4-dioxo-1-phenylbutan-2-yl)-5-oxo-1-[2-methoxy-6-(trifluoromethyl)benzyl]pyrrolidine-2-carboxamide], the “human cytCL” value in data set [1] is listed as “+ (14-70 μl/min/mg)”. Further, in data set [2], the “Sel cat. K” value is on record as “+++ (Ki(cathepsin K)/Ki(calpain) ratio of >30)”. Besides, the “Sel cat. S” value in data set [3] was “+++ (Ki(cathepsin S)/Ki(calpain) ratio of >100)”. Also, the “Sel cat. B” value in data set [4] is reported as “+++ (Ki(cathepsin B)/Ki(calpain) ratio of >30)”. Moreover, the “cyno cytCL” value in data set [5] was “+ (18-90 μl/min/mg)”. In data set [6], the pKi is more than 7.30. Besides, the “Sel cat. L” value in data set [7] is recorded as “+++ (Ki(cathepsin L)/Ki(calpain) ratio of >30)”.

A word on the pKi: it is the negative decadic logarithm of the Ki, by convention in mol/L.
